# Source: ChEMBL document CHEMBL3352224, “Synthesis and biological evaluation of piperlongumine derivatives as potent anti-inflammatory agents” (Bioorg Med Chem Lett, 2014)
# Experiments:
# RAW264.7 [1] = assay: Antiinflammatory activity in mouse RAW264.7 cells assessed as inhibition of LPS-induced NO production at 10 uM; type: functional
# RAW264.7 [2] = assay: Antiinflammatory activity in mouse RAW264.7 cells assessed as inhibition of LPS-induced NO production; type: functional, cell-based
# [3] = Cytotoxicity against mouse RAW264.7 cells assessed as cell proliferation at 1 uM; type: cell-based; settings: read-out: Activity
# RAW264.7 [4] = assay: Antiinflammatory activity in mouse RAW264.7 cells assessed as inhibition of LPS-induced NO production at 1 uM; type: functional
# [5] = Cytotoxicity against mouse RAW264.7 cells assessed as cell proliferation at 10 uM; type: cell-based; settings: read-out: Activity
SMILES,inhibition at 10 µM (RAW264.7 [1]),IC50 (RAW264.7 [2]),viability at 1 µM [3],inhibition at 1 µM (RAW264.7 [4]),viability at 10 µM [5]
COc1cc(/C=C/C(=O)N2CCCCC2=O)cc(OC)c1OC,46%,14 µM,107%,1%,101%
COc1cc(/C=C/C(=O)N2CCCC2=O)cc(OC)c1OC,28%,80 µM,105%,1%,102%
CCC(=O)NC(=O)/C=C/c1cc(OC)c(OC)c(OC)c1,16%,64 µM,97%,-1%,103%
COc1cc(/C=C/C(=O)N2CCC2=O)cc(OC)c1OC,22%,64 µM,97%,1%,92%
COc1cc(/C=C/C(=O)NC(C)=O)cc(OC)c1OC,16%,341 µM,104%,-1%,104%
COc1cc(/C=C/C(=O)N2CCC=CC2=O)cc(OC)c1OC [PIPLARTINE],91%,3 µM,115%,11%,77%
